In US9718812B2, “Substituted thiazole or oxazole P2X7 receptor antagonists” (Axxam S.P.A., priority 2014, dated 2017):

How the values were obtained:
[1] = molecular target: P2X7 receptor (hP2X7) (Homo sapiens (Human), UniProt Q99572); assay: Screen Quest Fluo-8 No Wash Calcium Assay (Bz-ATP-induced Ca2+ influx, FLIPR TETRA); format: cell-based; details: HEK-293 cells stably transfected with P2X7 receptor, Fluo-8 calcium, Low Divalent Cation Assay Buffer
Description: Extracellular binding of Bz-ATP to P2X7 receptor opens the channel and allows Ca2+ influx into the cells. This Ca2+ entry was measured in HEK-293 cells stably transfected with P2X7 receptor using Screen Quest™ Fluo-8 No Wash Calcium Assay Kit (AAt Bioquest®, cat. 36316). Once inside the cell, the lipophilic blocking groups of Fluo-8 are cleaved by non-specific cell esterases, resulting in a negatively-charged fluorescent dye that stays inside cells. Its fluorescence increases upon binding to calcium. When HEK-293/P2X7 cells are stimulated with Bz-ATP, Ca2+ enters the cells and the fluorescence of Fluo-8 NW increases. The dye has an absorption spectrum compatible with excitation at 488 nm by argon laser sources and its emission wavelength is in the range of 515-575 nm.
HEK-293 cells stably transfected with P2X7 receptor were seeded overnight in growth medium at 10,000 to 20,000 cells/well in 384-well plate. 24 hours later, the medium was removed and the cells were pre-loaded at RT for 1 hour with 20 μL/w of Fluo-8 NW. Then 10 μL/w of test compounds and reference antagonist A438079 at 3×-concentration were injected with the […] and the kinetic response over a period of five minutes was monitored.

[2] = molecular target: P2X7 receptor (Homo sapiens (Human), UniProt Q99572); assay: YO-PRO-1 Uptake Assay (large pore form, Bz-ATP stimulated); format: cell-based; details: HEK-293 cells stably transfected with P2X7 receptor; Bz-ATP EC80 (30 μM); 5 μM YO-PRO-1
From the text: YO-PRO®-1 is a fluorescent DNA-binding dye with a MW of 374 Da (Molecular Probes®, cat. Y3603). This method is based upon the presumed ability of YO-PRO®-1 to enter through the dilated or “large pore form” of P2X7 receptor and to bind to intracellular DNA whereupon it increases many fold its fluorescence intensity. The dye has an absorption spectrum compatible with excitation at 488 nm by argon laser sources and its emission wavelength is in the range of 515-575 nm. The aim of this assay was to validate the interaction of antagonists with P2X7 receptor using an alternative readout to Ca^2+-sensitive fluorescent dyes.
HEK-293 cells stably transfected with P2X7 receptor were seeded overnight in growth medium at 20,000 cells/well in 384-well plate. 24 hours later, the medium was removed, the cells were washed with Low Divalent Cation Assay Buffer (0.3 mM Ca2+ and 0 mM Mg2+) and then pre-loaded with 20 μL/w of 5 μM YO-PRO®-1 dye. […] fluorescence measurement immediately started. Then, 10 μL/w of test compounds and reference antagonist A438079 at 3×-concentration were injected with the […] and the kinetic response over a period of five minutes was monitored. A second injection of 10 μL/w of 3× Bz-ATP EC80 (30 μM) was performed with the […] and the signal of the emitted fluorescence was recorded for additional 60 minutes. All the experiment was carried out with a Low Divalent Cation Assay Buffer (0.3 mM Ca^2+ and 0 mM Mg^2+).
The effect of the test compounds was measured as percent inhibition vs the reference antagonist and IC50 values were calculated accordingly.

Sequence of P2X7 receptor (hP2X7) (Q99572 whole entry): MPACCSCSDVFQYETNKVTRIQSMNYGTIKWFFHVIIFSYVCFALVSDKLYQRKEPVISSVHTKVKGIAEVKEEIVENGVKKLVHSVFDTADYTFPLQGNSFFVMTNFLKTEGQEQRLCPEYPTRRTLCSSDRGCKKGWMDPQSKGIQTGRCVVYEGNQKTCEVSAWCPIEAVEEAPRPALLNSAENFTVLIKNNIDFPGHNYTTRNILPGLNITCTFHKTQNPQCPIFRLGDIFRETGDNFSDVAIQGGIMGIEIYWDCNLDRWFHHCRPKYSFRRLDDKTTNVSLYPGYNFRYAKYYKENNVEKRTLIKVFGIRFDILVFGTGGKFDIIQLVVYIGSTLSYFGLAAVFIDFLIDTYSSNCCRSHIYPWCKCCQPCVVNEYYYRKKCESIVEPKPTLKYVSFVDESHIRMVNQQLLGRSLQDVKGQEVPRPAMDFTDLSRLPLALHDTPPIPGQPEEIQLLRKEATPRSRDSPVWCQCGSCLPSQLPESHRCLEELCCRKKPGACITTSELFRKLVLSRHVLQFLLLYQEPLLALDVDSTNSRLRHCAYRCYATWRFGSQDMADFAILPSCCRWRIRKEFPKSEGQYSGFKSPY
Sequence of P2X7 receptor (Q99572 whole entry): as above

Row | SMILES | IC50 [1] [nM] | IC50 [2] [nM]
1 | Cc1ncc(C(CNC(=O)c2cc(-c3ncc(F)cn3)ccc2Cl)N2CCC(F)(F)CC2C)s1 (stereo not shown) [Compound 113, 2-chloro-N-[2-(4,4-difluoro-2-methylpiperidin-1-yl)-2-(2-methyl-1,3-thiazol-5-yl)ethyl]-5-(5-fluoropyrimidin-2-yl)] | 743 | 
2 | O=C(NCC(c1cnc(C2CC2)s1)N1CCC(F)(F)CC1)c1cc(-c2ncc(F)cn2)ccc1F (stereo not shown) [Compound 86, N-[2-(2-cyclopropyl-1,3-thiazol-5-yl)-2-(4,4-difluoropiperidin-1-yl)ethyl]-2-fluoro-5-(5-fluoropyrimidin-2-yl)benzamide] | 495 | 
3 | Cc1ncsc1C(CNC(=O)c1c(F)cccc1Cl)N1CCC(F)(F)CC1C (stereo not shown) [Compound 104, 2-chloro-N-[2-(4,4-difluoro-2-methylpiperidin-1-yl)-2-(4-methyl-1,3-thiazol-5-yl)ethyl]-6-fluorobenzamide] | 1870 | 
4 | O=C(NCC(c1scnc1C1CC1)N1CCC(F)(F)CC1)c1c(F)cccc1Cl (stereo not shown) [Compound 123, 2-chloro-N-[2-(4-cyclopropyl-1,3-thiazol-5-yl)-2-(4,4-difluoropiperidin-1-yl)ethyl]-6-fluorobenzamide] | 279 | 
5 | O=C(NCC(c1scnc1C1CC1)N1CCC(F)(F)CC1)c1cccc2ncccc12 (stereo not shown) [Compound 121, N-[2-(4-cyclopropyl-1,3-thiazol-5-yl)-2-(4,4-difluoropiperidin-1-yl)ethyl]quinoline-5-carboxamide] | 531 | 
6 | O=C(NCC(c1cnc(C2CCC(F)(F)CC2)s1)N1CCC(F)(F)CC1)c1c(F)cccc1Cl (stereo not shown) [Compound 117, 2-chloro-N-{2-[2-(4,4-difluorocyclohexyl)-1,3-thiazol-5-yl]-2-(4,4-difluoropiperidin-1-yl)ethyl}-6-fluorobenzamide] | 429 | 
7 | O=C(NCC(c1cnc(C2CCC(F)(F)CC2)s1)N1CCOCC1)c1cc(-c2ncc(F)cn2)ccc1Cl (stereo not shown) [Compound 125, 2-chloro-N-{2-[2-(4,4-difluorocyclohexyl)-1,3-thiazol-5-yl]-2-(morpholin-4-yl)ethyl}-5-(5-fluoropyrimidin-2-yl)benzamide] | 336 | 
8 | Cc1ncc(C(CNC(=O)c2cc(-c3cnccn3)ccc2Cl)N2CCC(F)(F)CC2)s1 (stereo not shown) [Compound 78, 2-chloro-N-[2-(4,4-difluoropiperidin-1-yl)-2-(2-methyl-1,3-thiazol-5-yl)ethyl]-5-(pyrazin-2-yl)benzamide] | 133 | 
9 | O=C(NCC(c1cnco1)N1CCC(F)(F)CC1)c1c(F)cccc1Cl (stereo not shown) [Compound 45, 2-chloro-N-[2-(4,4-difluoropiperidin-1-yl)-2-(1,3-oxazol-5-yl)ethyl]-6-fluorobenzamide] |  | 225
10 | Cc1cccc(-c2ccc(Cl)c(C(=O)NCC(c3cnc(C)s3)N3CCC(F)(F)CC3)c2)n1 (stereo not shown) [Compound 79, 2-chloro-N-[2-(4,4-difluoropiperidin-1-yl)-2-(2-methyl-1,3-thiazol-5-yl)ethyl]-5-(6-methylpyridin-2-yl)benzamide] | 206 | 
11 | Cc1ncsc1C(CNC(=O)c1c(F)cccc1Cl)N1CCOC(c2ccccc2C(F)(F)F)C1 (stereo not shown) [Compound 90, 2-chloro-6-fluoro-N-[2-(4-methyl-1,3-thiazol-5-yl)-2-{2-[2-(trifluoromethyl)phenyl]morpholin-4-yl}ethyl]benzamide] | 412 | 
12 | Cc1ncsc1C(CNC(=O)c1cc(-c2ncc(F)cn2)ccc1F)N1CCOC(c2cnn(C)c2)C1 (stereo not shown) [Compound 98] | 142 | 
13 | COc1ccc(-c2ncc(F)cn2)cc1C(=O)NCC(c1scnc1C)N1CCC(F)(F)CC1 (stereo not shown) [Compound 71, N-[2-(4,4-difluoropiperidin-1-yl)-2-(4-methyl-1,3-thiazol-5-yl)ethyl]-5-(5-fluoropyrimidin-2-yl)-2-methoxybenzamide] | 355 | 
14 | Cc1ncsc1C(CNC(=O)c1cc(-c2ncc(F)cn2)ccc1Cl)N1CCOC(c2cnn(C)c2)C1 (stereo not shown) [Compound 97] | 139 | 
15 | O=C(NCC(c1cnc(C(F)(F)F)s1)N1CCC(F)(F)CC1)c1cc(-c2ncc(F)cn2)ccc1Cl (stereo not shown) [Compound 82] | 737 | 
16 | CC(C)(C)c1ncc(C(CNC(=O)c2c(F)cccc2Cl)N2CCC(F)(F)CC2)s1 (stereo not shown) [Compound 118, N-[2-(2-tert-butyl-1,3-thiazol-5-yl)-2-(4,4-difluoropiperidin-1-yl)ethyl]-2-chloro-6-fluoro-benzamide] | 243 | 

Row | SMILES | IC50 [1] [nM] | IC50 [2] [nM]
17 | Cc1ncsc1C(CNC(=O)c1cc2c(cc1F)NC(=O)CC2)N1CCC(F)(F)CC1 (stereo not shown) [Compound 120, N-[2-(4,4-difluoropiperidin-1-yl)-2-(4-methyl-1,3-thiazol-5-yl)ethyl]-7-fluoro-2-oxo-1,2,3,4-tetrahydroquinoline-6-] | 6910 | 
18 | Cc1ncsc1C(CNC(=O)c1cc(-c2ncc(F)cn2)ccc1Cl)N1CCC(F)(F)CC1C (stereo not shown) [Compound 103, 2-chloro-N-[2-(4,4-difluoro-2-methylpiperidin-1-yl)-2-(4-methyl-1,3-thiazol-5-yl)ethyl]-5-(5-fluoropyrimidin-2-yl)benzamide] | 186 | 
19 | Cc1ncoc1C(CNC(=O)c1c(F)cccc1Cl)N1CCC(F)(F)CC1 (stereo not shown) [Compound 52, 2-chloro-N-[2-(4,4-difluoropiperidin-1-yl)-2-(4-methyl-1,3-oxazol-5-yl)ethyl]-6-fluorobenzamide] |  | 2070
20 | Cc1ncsc1C(CNC(=O)c1cc(-c2ncc(F)cn2)ccc1Cl)N1CC(F)(F)C1 (stereo not shown) [Compound 65, 2-chloro-N-[2-(3,3-difluoroazetidin-1-yl)-2-(4-methyl-1,3-thiazol-5-yl)ethyl]-5-(5-fluoropyrimidin-2-yl)benzamide] | 39 | 
21 | Cc1ncsc1C(CNC(=O)c1ccc(N2CCCS2(=O)=O)cc1Cl)N1CCC(F)(F)CC1 (stereo not shown) [Compound 114] | 367 | 
22 | Cc1ncc(C(CNC(=O)c2cc(-c3ncc(F)cn3)ccc2F)N2CCC(F)(F)CC2)s1 (stereo not shown) [Compound 80, N-[2-(4,4-difluoropiperidin-1-yl)-2-(2-methyl-1,3-thiazol-5-yl)ethyl]-2-fluoro-5-(5-fluoropyrimidin-2-yl)benzamide] | 292 | 
23 | Cc1ncsc1C(CNC(=O)c1c(F)cccc1Cl)N1CCOC2(CCC2)C1 (stereo not shown) [Compound 96, 2-chloro-6-fluoro-N-[2-(4-methyl-1,3-thiazol-5-yl)-2-{5-oxa-8-azaspiro[3.5]nonan-8-yl}ethyl]benzamide] | 989 | 
24 | CC(C)(C)c1ncc(C(CNC(=O)c2cccc3ncccc23)N2CCC(F)(F)CC2)s1 (stereo not shown) [Compound 124, N-[2-(2-tert-butyl-1,3-thiazol-5-yl)-2-(4,4-difluoropiperidin-1-yl)ethyl]quinoline-5-carboxamide] | 3950 | 
25 | O=C(NCC(c1cnc(C2CCC(F)(F)CC2)s1)N1CCC(F)(F)CC1)c1cc(-c2ncc(F)cn2)ccc1Cl (stereo not shown) [Compound 126] | 1430 | 
26 | Cc1ncsc1C(CNC(=O)c1cc(-c2ncc(F)cn2)ccc1F)N1CCOC2(CCC2)C1 (stereo not shown) [Compound 94, 2-fluoro-5-(5-fluoropyrimidin-2-yl)-N-[2-(4-methyl-1,3-thiazol-5-yl)-2-{5-oxa-8-azaspiro[3.5]nonan-8-yl}ethyl]benzamide] | 321 | 
27 | O=C(NCC(c1scnc1C1CC1)N1CCC(F)(F)CC1)c1cc(-c2ncc(F)cn2)ccc1Cl (stereo not shown) [Compound 119] | 319 | 
28 | Cc1ncsc1C(CNC(=O)c1c(F)cccc1Cl)N1CCCC(F)(F)C1 (stereo not shown) [Compound 64, 2-chloro-N-[2-(3,3-difluoropiperidin-1-yl)-2-(4-methyl-1,3-thiazol-5-yl)ethyl]-6-fluorobenzamide] | 253 | 
29 | Cc1ncsc1C(CNC(=O)c1c(F)cccc1Cl)N1CCOC(c2cnn(C)c2)C1 (stereo not shown) [Compound 92, 2-chloro-6-fluoro-N-[2-(4-methyl-1,3-thiazol-5-yl)-2-[2-(1-methyl-1H-pyrazol-4-yl)morpholin-4-yl]ethyl]benzamide] | 171 | 
30 | Cc1ncsc1C(CNC(=O)c1cc(-c2ncc(F)cn2)ccc1Cl)N1CCC(Oc2ccccc2)CC1 (stereo not shown) [Compound 73, 2-chloro-5-(5-fluoropyrimidin-2-yl)-N-[2-(4-methyl-1,3-thiazol-5-yl)-2-(4-phenoxypiperidin-1-yl)ethyl]benzamide] | 238 | 
31 | CC(C)(C)c1ncc(C(CNC(=O)c2cc(-c3ncc(F)cn3)ccc2Cl)N2CCC(F)(F)CC2)s1 (stereo not shown) [Compound 122, N-[2-(2-tert-butyl-1,3-thiazol-5-yl)-2-(4,4-difluoropiperidin-1-yl)ethyl]-2-chloro-5-(5-fluoropyrimidin-2-yl)benzamide] | 1060 | 
